# From patent US20060111368A1, “Phosphodiesterase inhibitor” (Kyowa Hakko Kogyo Co., Ltd., priority 2002, published 2006)
# Where a name gives a salt, the structure may show the parent alone. Read-outs that look alike come from different tables or passages of the source.
# What was measured:
# PDE10A = target: T1, PDE10A (Homo sapiens, UniProt Q9Y233); test: Activity of inhibiting PDE10A activity ([3H]cAMP decomposition inhibiting test); assay type: biochemical; details: for inhibition at 1 µM: read-out: [3H] cAMP decomposition inhibition rate (%); for IC50: read-out: IC50 (concentration at which to inhibit [3H]cAMP decomposition by 50%)
# T1 construct: made in house; host or cells: Sf9 insect cells (baculovirus, pVL1393)
# Method: Activity of Inhibiting PDE10A Activity (^3H]cAMP Decomposition Inhibiting Test)
# PCR was performed using DNAs having base sequences described in SEQ ID NO. 1 and SEQ ID NO. 2 as primers and human kidney cDNA as a template to prepare a plasmid containing amplified fragments. The plasmid was cleaved with restriction endonucleases Pst I and Xba I to obtain a Pst I-Xba I fragment of 0.7 kb.
# Meanwhile, Est clone (Cosmo Bio, Tokyo) of GenBank, ACCESSION WO 4835 was cleaved with restriction endonucleases Kpn I and Pst I to obtain a Kpn I-Pst I fragment of 1.5 kb.
# The resulting Pst I-Xba I fragment of 0.7 kb and Kpn I-Pst I fragment of 1.5 kb were subcloned in a Kpn I-Xba I site of pBluescript II KS(−) (STRATAGENE, La Jolla, Calif., USA),to construct a plasmid having a cDNA fragment completely including a catalyst region of PDE10A. Subsequently, the plasmid was cleaved with restriction endonucleases Kpn I and Not I to obtain a Kpn I-Not I fragment of 2.2 kb.
# The resulting Kpn I-Not I fragment of 2.2 kb and a linker having a BamH I-Kpn I cleavage surface prepared by synthetic DNA having base sequences described in SEQ ID NOS. 3 and 4 were subcloned in a BamH I-Not I site of pVL1393 (PharMingen, San Diego, Calif., USA) to obtain a plasmid for preparation of Baculovirus. The plasmid contains a DNA encoding a peptide in which methionine, FLAG tag and a peptide having a 64th to 779th amino acid sequence of PDE10A [GenBank, ACCESSION NP 006652: Gene, vol. 234, p. 109 (1999), J. Biol. Chem., vol. 274, p. 18438 (1999)] are bound in the order.
# The above gene recombinational manipulation was performed according to the method described in Molecular Cloning, 2nd edition, Cold Spring Harbor Laboratory Press, New York (1989).
# The expression of PDE10A was conducted according to the Baculovirus expression vector system manual (PharMingen) using insect cells. As insect cells, Sf9 cells (Asahi Technoglass, Tokyo) were used. Sf9 cells were infected with a supernatant (co-transfection sup) containing PDE10A expression virus prepared according to the manual, and cultured at 27° C. for 4 days. The cells were recovered, washed with a phosphate-buffered saline (PBS), and then suspended in an extraction solution [20 mmol/L Tris-acetate (pH 7.5), 2 mmol/L MgCl2, 1 mmol/L dithiothreitol, 1 mmol/L ethylenediaminetetraacetic acid (EDTA), 0.25 mol/L sucrose, 250 unit/mL aprotinin, 40 μg/mL phenylmethylsulfonyl fluoride, and 1 μg/mL pepstatin A]. The cells were disrupted in ice with the maximum output under conditions of 5 seconds and five times using an ultrasonic disruption machine (TOMY model UR-200R, TOMY, Tokyo). A soluble fraction was obtained by centrifugation under 10,000 rpm of the fraction at 4° C. for 30 minutes, and the resulting soluble fraction was used for measuring the PDE activity.
# The PDE activity was measured according to the method described in Methods Enzymol., vol. 159, p. 457 (1988).
# Using [^3H]cAMP as a substrate, an enzyme reaction was conducted in a reaction solution containing 300 μL of 50 mmol/L N,N-bis (2-hydroxyethyl)-2-aminoethanesulfonic acid (pH 7.2), 1 mmol/L MgCl2 and 0.1 mmol/L ethylene glycol-bis (β-aminoethyl ether)-N,N,N′,N′-tetraacetic acid: EGTA). The concentration of the substrate was 0.2 μmol/L. To 95 μL of an enzyme dilute solution were added 5 μL of a test compound (DMSO solution) and 200 μL of a substrate solution. The mixture was incubated at 30° C. for 20 minutes, and then HCl was added to stop the reaction. The reaction product (5′-AMP) was converted to adenosine using 5′-nucleotidase, and separated the unreacted product from the reactant by DEAE-Sephadex A-25 column (Amersham Pharmacia Biotech, Uppsala, Sweden). The elute was moved to scintillation vials, 6 mL of Ultima Gold (Packard Instrument, Meriden, Conn., USA) was added, and the radioactivity was measured for 2 minutes using a liquid scintillation counter (Beckman LS6500, Beckman, Tokyo),. […]
# [1] = Test compound concentration 1 μmol/L, substrate [3H]cAMP 0.2 μmol/L
# T1 sequence (Q9Y233 340-1055): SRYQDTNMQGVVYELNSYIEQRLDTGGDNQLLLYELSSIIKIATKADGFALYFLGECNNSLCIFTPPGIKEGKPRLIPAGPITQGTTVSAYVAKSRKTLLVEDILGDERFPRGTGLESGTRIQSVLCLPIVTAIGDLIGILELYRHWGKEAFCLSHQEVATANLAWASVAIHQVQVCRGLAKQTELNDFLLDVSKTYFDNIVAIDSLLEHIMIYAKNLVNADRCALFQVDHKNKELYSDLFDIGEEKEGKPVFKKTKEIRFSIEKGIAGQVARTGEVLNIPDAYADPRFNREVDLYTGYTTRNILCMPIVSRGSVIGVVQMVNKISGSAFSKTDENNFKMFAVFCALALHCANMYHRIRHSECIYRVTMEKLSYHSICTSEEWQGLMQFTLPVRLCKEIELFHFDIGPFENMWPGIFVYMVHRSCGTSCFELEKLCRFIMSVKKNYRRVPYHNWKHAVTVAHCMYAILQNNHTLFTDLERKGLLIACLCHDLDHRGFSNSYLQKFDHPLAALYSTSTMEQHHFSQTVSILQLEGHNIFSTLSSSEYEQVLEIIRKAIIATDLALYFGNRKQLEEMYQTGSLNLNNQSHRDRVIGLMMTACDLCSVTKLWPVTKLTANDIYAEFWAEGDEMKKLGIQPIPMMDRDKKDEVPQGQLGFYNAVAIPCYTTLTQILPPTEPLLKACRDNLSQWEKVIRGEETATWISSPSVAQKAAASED
SMILES,inhibition at 1 µM (PDE10A; [1]),IC50 (PDE10A; substrate [3H]cAMP 0.2 μmol/L),melting point,inhibition at 1 µM (PDE10A)
"Cc1c(-c2ccc(-c3ccccc3-c3ccccc3)cc2)nc2ccc(F)cc2c1C#N [Compound 17, 6-Fluoro-3-methyl-2-([1,1′;2′,1″-terphenyl]-4-yl)quinoline-4-carbonitrile]",70%,0.373 µM,153 to 155 °C,
"COc1ccccc1-c1ccc(-c2nc3ccc(F)cc3c(C(=O)O)c2C)cc1 [D, 6-Fluoro-2-(2′-methoxybiphenyl-4-yl)-3-methylquinoline-4-carboxylic acid]",99%,0.011 µM,283 to 295 °C,
"Cc1c(-c2ccc(-c3ccccc3CN3CCN(c4ccccc4)CC3)cc2)nc2ccc(F)cc2c1CO [Compound 11, 6-Fluoro-4-hydroxymethyl-3-methyl-2-[2′-(4-phenylpiperazin-1-yl)methylbiphenyl-4-yl]quinoline]",90%,0.173 µM,154 to 156 °C,
Cc1c(-c2ccc(-c3ccccc3C=O)cc2)nc2ccc(F)cc2c1CO [Compound 9],,,192 to 194 °C,
"CC(=O)c1c(C)c(-c2ccc(-c3ccccc3-c3ccccc3)cc2)nc2ccc(F)cc12 [Compound 16, 4-Acetyl-6-fluoro-3-methyl-2-([1,1′:2′,11″-terphenyl]-4-yl)quinoline]",,,,80%
COc1ccc(F)cc1-c1ccc(-c2nc3ccc(F)cc3c(C(=O)O)c2C)cc1,,,> 300 °C,
"Cc1c(-c2ccc(-c3ccccc3CN3CCOCC3)cc2)nc2ccc(F)cc2c1CO (as salt: hydrochloride) [Compound 12, 6-Fluoro-4-hydroxymethyl-3-methyl-2-(2′-morpholinomethylbiphenyl-4-yl)quinoline dihydrochloride]",,,190 to 192 °C,
"COC(=O)c1c(C)c(N2CCN(c3ccccc3OC)CC2)nc2ccc(F)cc12 [Compound 19, Methyl 6-Fluoro-2-[4-(2-methoxyphenyl)piperazin-1-yl]-3-methylquinoline-4-carboxylate]",,,128 to 129 °C,
"Cc1c(-c2ccc(-c3ccccc3C=O)cc2)nc2ccc(F)cc2c1C(=O)O [Compound J, 6-Fluoro-2-(2′-formylbiphenyl-4-yl)-3-methylquinoline-4-carboxylic acid]",99%,0.016 µM,> 300 °C,
"CNCc1ccccc1-c1ccc(-c2nc3ccc(F)cc3c(CO)c2C)cc1 [Compound 10, 6-Fluoro-4-hydroxymethyl-3-methyl-2-[2′-(methylamino)methylbiphenyl-4-yl]quinoline]",,,193 to 195 °C,
"Cc1c(-c2ccc(-c3ccccc3F)cc2)nc2ccc(F)cc2c1CO [Compound 6, 6-Fluoro-2-(2′-fluorobiphenyl-4-yl)-4-hydroxymethyl-3-methylquinoline]",91%,0.098 µM,,
"Cc1ccccc1-c1ccc(-c2nc3ccc(F)cc3c(C(=O)O)c2C)cc1 [H, 6-Fluoro-3-methyl-2-(2′-methylbiphenyl-4-yl)quinoline-4-carboxylic acid]",97%,0.047 µM,260 °C (dec.),
"CCOc1ccc(-c2ccc(-c3nc4ccc(F)cc4c(CO)c3C)cc2)cc1 [Compound 5, 2-(4′-Ethoxybiphenyl-4-yl)-6-fluoro-4-hydroxymethyl-3-methylquinoline]",,,211 to 212 °C,
"Cc1c(-c2ccc(-c3ccccc3CN3CCN(c4ccccc4)CC3)cc2)nc2ccc(F)cc2c1C(=O)O [L, 6-Fluoro-3-methyl-2-[21-(4-phenylpiperazin-1-yl)methylbiphenyl-4-yl]quinoline-4-carboxylic acid]",99%,0.021 µM,189 to 190 °C,
"Cc1c(-c2ccc(-c3ccccc3-c3ccccc3)cc2)nc2ccc(F)cc2c1C [Compound 18, 3,4-Dimethyl-6-fluoro-2-([1,1′:2′,1″-terphenyl]-4-yl)quinoline]",97%,0.0048 µM,194 to 195 °C,
"Cc1c(-c2ccc(-c3ccccc3CNc3ccccc3)cc2)nc2ccc(F)cc2c1C(=O)O [Compound N, 6-Fluoro-3-methyl-2-[(2′-phenylamino)methylbiphenyl-4-yl]quinoline-4-carboxylic acid]",99%,0.013 µM,222 to 224 °C,
"Cc1c(-c2ccc(-c3ccccc3-c3ccccc3)cc2)nc2ccc(F)cc2c1CO [Compound 1, 6-Fluoro-4-hydroxymethyl-3-methyl-2-([1,1′:2′,1″-terphenyl]-4-yl)quinoline]",99%,0.0042 µM,121 to 123 °C,
"Cc1c(-c2ccc(-c3ccccc3-c3ccccc3)cc2)nc2ccc(F)cc2c1C(N)=O [O, 6-Fluoro-3-methyl-2-([1,1′:2′,1″-terphenyl]-4-yl)quinone-4-carboxamide]",,0.033 µM,243 to 246 °C,94%
"Cc1c(-c2ccc(-c3ccccc3CO)cc2)nc2ccc(F)cc2c1C(=O)O [K, 6-Fluoro-2-(2′-hydroxymethylbiphenyl-4-yl)-3-methylquinoline-4-carboxylic acid]",90%,,258 to 260 °C,
"COc1ccc(F)cc1-c1ccc(-c2nc3ccc(F)cc3c(CO)c2C)cc1 [Compound 7, 6-Fluoro-2-(5′-fluoro-2′-methoxybiphenyl-4-yl)-4-hydroxymethyl-3-methylquinoline]",97%,0.034 µM,202 to 203 °C,
"COC(=O)c1c(C)c(-c2ccc(-c3ccccc3-c3ccccc3)cc2)nc2ccc(F)cc12 [Compound 15, Methyl 6-fluoro-3-methyl-2-([1,1′:2′,1″-terphenyl]-4-yl)quinoline-4-carboxylate]",,,164 to 165 °C,
"CCOc1ccccc1-c1ccc(-c2nc3ccc(F)cc3c(C(=O)O)c2C)cc1 [I, 2-(2′-Ethoxybiphenyl-4-yl)-6-fluoro-3-methylquinoline-4-carboxylic acid]",99%,0.0055 µM,,
Cc1c(-c2ccc(-c3ccccc3CNCCO)cc2)nc2ccc(F)cc2c1CO (as salt: hydrochloride),,,203 to 205 °C,
"Cc1c(-c2ccc(Br)cc2)nc2ccc(F)cc2c1CO [Compound 21, 2-(4-Bromophenyl)-6-fluoro-4-hydroxymethyl-3-methylquinoline]",,,222 to 240 °C,
"COc1ccccc1N1CCN(c2nc3ccc(F)cc3c(CO)c2C)CC1 [Compound 20, 6-Fluoro-4-hydroxymethyl-2-[4-(2-methoxyphenyl)piperazin-1-yl]-3-methylquinoline]",,,190 to 191 °C,
COc1ccc(-c2ccc(-c3nc4ccc(F)cc4c(C(=O)O)c3C)cc2)c(OC)c1,,,> 300 °C,
Cc1c(-c2ccc(-c3ccccc3-c3ccccc3)cc2)nc2ccc(F)cc2c1N,,,227 to 229 °C,
Cc1c(-c2ccc(Br)cc2)nc2ccc(F)cc2c1C(=O)O,,,> 300 °C,
